“Also recorded” adds a separate entry of the source.
Assays:
[1] = system: Colon26 murine colon cancer cells; assay: Prophylactic Colon26 colon cancer model; assay type: in vivo, BALB/c mice; details: alone or with antibody
Procedure: Charles River (CR) BALB/c mice were implanted with Colon26 murine colon cancer cells on Day 1, and treatment was initiated on Day 3 with control (vehicle), anti-CTLA-4 (clone 4F10), anti-PD-1 (clone RMP1-14), anti-CTLA-4/anti-PD-1 combination, LPT-723 (10 mpk, 30 mpk), anti-CTLA-4/LPT-723 (10 mpk, 30 mpk) combination, or anti-PD-1/LPT-723 (10 mpk, 30 mpk) combination. Anti-CTLA-4 was dosed i.p. on Day 8 at a dose of 100 μg/animal and on Days 11, and 14 at a dose of 50 μg/animal. Anti-PD-1 was dosed i.p. twice a week for two weeks starting on Day 3 at a dose of 100 μg/animal. LPT-723 was dosed per os (p.o.) twice a day starting on Day 3.

Pan02 cells = assay: In vitro cell viability assay (CellTiter-Glo), Pan02; assay type: cell-based, murine; details: Mus musculus
From the text: No significant changes in body weights were noted.

[2] = Micronucleus assay (flow analysis, 7-day oral toxicity study); assay type: in vivo; details: rat blood, Day 8 of 7-day oral study
Procedure: Prior to necropsy on Day 8, rats in a main study group of a 7-day oral toxicity and toxicokinetic (TK) study were bled from the jugular vein for the evaluation of the flow analysis of micronucleus. […] The procedure used for collection and fixation of blood is summarized below:
Preparation of the Fixative Tubes: Fixative tubes were prepared one day prior to blood collection. Two 15 mL polypropylene centrifuge tubes (VWR no. 21008-103) were required per sample. 2 mL of ultracold fixative-methanol was added to each appropriately labeled tube (Tubes B1 and B2), and caps were replaced. The rack of tubes was placed overnight at approximately −80° C. to allow for sufficient chilling of the fixative.
Preparation of the Anticoagulant/Diluent Vials (prior to blood collection): One vial (2 mL cryovials; VWR no. 66008-728) was required for each sample. 350 μL of anticoagulant/diluent (Prototype Pig-a Mutation Assay Anticoagulant Solution, lot #17716, provided by BioReliance, from Litron) was aseptically aliquoted into each appropriately labeled vial (Tube A). […]
Transferring of Fixed Samples into LTSS: Samples were transferred into LTSS after they had been in the fixative for at least 3 days. […] With a container of ice and a 25 mL pipette ready for aliquoting the buffer solution used below, the following steps were performed as quickly as possible (within approximately 20 seconds). […]

[3] = Rat 28-day GLP toxicity study; assay type: in vivo, CD [Crl:CD (SD)] rats
Procedure: Vehicle and Test Article Preparation: The vehicle, 2% TPGS/1.5% HPMCAS-HF/1.5% PVP-VA with 50 mM pH 5.0 sodium citrate in deionized water, was prepared for use weekly and was stored at room temperature when not in use. A correction factor of 4 was used to adjust for purity when preparing the LPT-723 formulations. Appropriate amounts of the LPT-723 were mixed with the vehicle to achieve nominal concentrations of 0.3, 0.6, and 1.2 mg/mL. Formulations of the LPT-723 were prepared daily, stored at room temperature, protected from light, and were dosed within 4 hours of preparation.
Animal Acquisition and Acclimation: A total of 98 male and 98 female CD® [Crl:CD® (SD)] rats (approximately 6 to 7 weeks of age at receipt) were received from Charles River Laboratories, Portage, Mich. During the 10-day acclimation period, the animals were observed daily with respect to general health and any signs of disease. All animals were given a detailed clinical examination prior to selection for study. The animals were administered a sham dose of tap water on two occasions in the same manner and dose volume intended for use on study.
Randomization, Assignment to Study, and Maintenance: Using a standard, by weight, measured value randomization procedure, 85 male and 85 female animals (weighing 228 to 283 g and 170 to 218 g, respectively, at randomization) were assigned to the control and treatment groups identified in the following table.
Vehicle and LPT-723 Administration: Vehicle and LPT-723 were administered once daily for 22 days for main study animals at 12 mg/kg/day, for 23 days for TK animals at 12 mg/kg/day, and for 28 days for all animals at 0, 3, and 6 mg/kg/day. The animals were dosed via oral gavage at a dose volume of 10 mL/kg. The control group received the vehicle in the same manner as the treated groups. The vehicle and test article were dosed from stirred formulations at approximately the same time each day (±2 hours) based on the first animal dosed each day. Individual doses were based on the most recent body weights.

## Cc1cc(-c2cncc(C(O)C(F)(F)F)c2)nc2c1C(=O)N(c1cnn(CC(F)F)c1)C2(C)C (stereo not shown) [LPT-723]
[1]; MR237 10 mg/kg bid
  % TGD: 0%
  T-C: −0
  TFS: 0
[1]; MR237 10 mg/kg p.o. bid from Day 3 to end
  Median TTE: 31.9
[1]; MR237 30 mg/kg bid
  % TGD: 5%
  T-C: 1.7
  TFS: 1
[1]; MR237 30 mg/kg bid, Day 57
  MTV (n), Day 57: 0 (1)
[1]; MR237 30 mg/kg p.o. bid from Day 3 to end
  Median TTE: 33.7
Pan02 cells
  IC50: 26.6 µM
[2]
  toxicity, micronucleus flow analysis: No toxicity was observed; also recorded: no significant toxicity
[3]
  therapeutic index: < 4
  tolerability: poorly tolerated
[3]; both sexes, CD [Crl:CD (SD)], in vivo, oral gavage once daily, 3, 6, 12 mg/kg/day, read-out: no observed adverse effect level (NOAEL)
  NOAEL: < 3 mg/kg
[3]; clinical chemistry
  circulating neutrophils: large increase in circulating neutrophils
[3]; particularly gastrointestinal tract
  tissue findings: inflammatory state in multiple organs
